We go through two compounds from patent publication EP4813381A1, “PHARMACEUTICAL USE OF GUAIANE SESQUITERPENE DERIVATIVE” (Nanjing University Of Chinese Medicine, priority 2023, dated 2025).

Experiment [1] concerns inflammatory cytokines (IL-1β, IL-6). Put plainly: LPS acute lung injury model in mice: ELISA of inflammatory cytokines. It is filed as in vivo, C57BL/6 mice. The text has this:
The abdomen was opened, and the lungs were removed. They were rinsed twice with pre-chilled PBS. […] P values less than 0.05 were considered statistically significant.

In experiment [2] the test system is fibrosis-related factors (Acta2, Col1a1, Tgfb1). Put plainly: CCl4 acute liver injury model in mice: Q-PCR of fibrosis-related factors in liver. It is filed as in vivo, C57BL/6 mice. The conditions noted are these: liver mRNA. As to the method:
They were acclimated for 7 days before use in experiments. • Experimental Methods: Establishment of Acute Liver Injury Model in Mice and Group-Specific Drug Administration • Mice were randomly assigned to groups. One group was arbitrarily designated as the normal group, while the remaining groups served as model group, Compound 1 group, Hydrochloride 20 group, Fumarate 21 group, and Silibinin group, with 6 mice per group. Except for the normal group receiving 10 mL olive oil/kg via injection, all other mice received 0.5 mL CCl4 + 9.5 mL olive oil/kg body weight via intraperitoneal injection, maintaining a CCl4 to olive oil ratio of 1:19. Starting from day 1 of modeling, Compound 1, Hydrochloride 20, and Fumarate 21 were administered orally for 3 consecutive days. […] The blood was allowed to stand at room temperature for 2 hours, then centrifuged at 3000 rpm for 20 minutes. Serum was aspirated, aliquoted, and stored at -70 °C for future use. After blood collection, euthanize mice by cervical dislocation. Perform laparotomy to remove the liver. Rinse twice with pre-chilled PBS. Excise the left hepatic lobe tissue. […] Store remaining tissue at -70 °C for future use. • Serum AST and ALT Assay: Use 10 µL of each sample for testing. Determine mouse serum AST and ALT levels according to the operating manual. Measure absorbance at 510 nm using an enzyme-linked immunosorbent assay (ELISA) reader. Calculate sample concentration (U/L) based on the standard curve.
Q-PCR Analysis: Tissue total RNA extraction, cDNA synthesis, and PCR amplification methods are identical to Example 4. Additional primer information is as follows:
Data Statistics: All data are expressed as means ± standard error of the mean (S.E.M.). Differences were analyzed for significance using analysis of variance (ANOVA). For groups showing significant differences in ANOVA, one-way ANOVA followed by Dunnett's test was performed to compare intergroup differences.

The next experiment deals with CCR2 mRNA. The experiment is described as follows: CCR2 mRNA level in MDSCs (PCR). Type of experiment: cell-based, mice. The conditions noted are these: CCR2 mRNA levels in MDSCs, 2 h. In a few lines:
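Mouse tibial bone marrow cells differentiated to MDSCs in RPMI 1640 with GM-CSF (10 ng/mL) plus IL-4 (10 ng/mL), seeded at 1 × 10^6 cells/mL. After treatment, RNA extracted, reverse transcribed, and CCR2 transcript measured by PCR.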

A further experiment has as its system diabetic nephropathy. The experiment is described as follows: Diabetic nephropathy (STZ + HFD, DKD) mice: Scr and BUN. Conditions: serum, 8 weeks. It is filed as in vivo, C57/BL6J mice. As to the method: Production license number: SCXK(Su)2023-0009. […] Animals were acclimated for 7 days before use in experiments.
Administer streptozotocin (STZ, 50 mg/kg) via intraperitoneal injection for 5 consecutive days. After 72 hours, select mice with fasting blood glucose levels exceeding 16.7 mmol/L as model mice. […] Model mice were fed a high-fat diet (HFD) providing 60% of energy from fat for 8 weeks. After 8 weeks, gavage administration commenced.
Specimen Collection: One hour after the last drug administration, enucleate the eyeball to collect blood. Allow blood to stand at room temperature for 2 hours, then centrifuge at 3000 rpm for 20 minutes. Aspirate the serum, aliquot it, and store at -70 °C for future use. After blood collection, euthanize the mice by cervical dislocation. Open the abdominal cavity, remove the kidneys, and dissect away the perirenal fat and capsule. Store the tissue at -70 °C for future use.
Serum Creatinine (Scr) and Blood Urea Nitrogen (BUN) Assay: For each sample, 10 µL of serum was used for creatinine and urea level detection. Samples were added sequentially strictly following the kit instructions. After incubation at 37 °C, absorbance values were measured using an enzyme-linked immunosorbent assay (ELISA) reader. The concentration levels of each indicator were calculated based on the standard curve.

Another experiment concerns CT26 cells. It is filed as in vivo, BALB/c mice. The conditions noted are these: CT26, oral 80 µmol/kg/day, 3 weeks.
The mark [3] stands for this setting: oral gavage 0.1 mg/kg for three days.
Setting [4] is: oral gavage 1 mg/kg for three days.

In experiment [1] (setting [3]), `C=C1C(=O)O[C@@H]2[C@@H]3[C@]4(CC[C@@]3(C)O)C[C@]4(C)CC[C@@H]12` [compound 1] showed an IL-1β of 1824.88 ± 32.73 pg/mL and an IL-6 of 2760.57 ± 288.02 pg/mL. In experiment [1] (setting [4]), this compound registered an IL-1β of 945.66 ± 36.71 pg/mL and an IL-6 of 1314.91 ± 231.08 pg/mL. Besides, in experiment [2] (oral 0.1 mg/kg), the Acta2 worked out at 3.82±0.88, the Col1a1 came to 2.28±0.80 and the Tgfb1 was found to be 1.39±0.58. Further, in experiment [2] (oral 1 mg/kg), the Acta2 was determined as 2.34±0.16, the Col1a1 is reported as 1.40±0.31 and the Tgfb1 was determined as 1.08±0.21. In addition, the “CCR2 mRNA suppression rate in MDSCs (%)” value with CCR2 mRNA (1 µM) worked out at 35.2%. The “CCR2 mRNA suppression rate in MDSCs (%)” value in the experiment with CCR2 mRNA (10 µM) is 76.5%.

With `CN(C)C[C@@H]1C(=O)O[C@H]2[C@H]1CC[C@@]1(C)C[C@]13CC[C@@](C)(O)[C@H]23` [compound 20], in the experiment with diabetic nephropathy (gavage 1 mg/kg), the BUN came to 37.01±2.50 and the Scr amounted to 17.72±1.658. For the same compound, in the experiment with diabetic nephropathy (gavage 10 mg/kg), the BUN is 19.71±1.22 and the Scr was determined as 12.96±0.78. Besides, the antitumor effects result with CT26 cells is recorded as “tumor-inhibiting effects”.
